Measured values from publication doi:10.1101/2024.08.25.609621 (bioRxiv, 2024).
Values joined by “and” are separate entries in the source; they are usually repeats but may differ in a detail not shown here. Equal entries are not always repeated. Where two headings read alike, the source gives them in different places.

What was measured:
[1] = biological target: SARS-CoV-2 NSP3 macrodomain (Mac1) (Severe acute respiratory syndrome coronavirus 2, UniProt P0DTD1); assay: biochemical; format: binding
[2] = biological target: SARS-CoV-2 NSP3 macrodomain (Mac1), P43 crystal form (Severe acute respiratory syndrome coronavirus 2, UniProt P0DTD1); format: binding
[3] = dose-response, read-out: SARS CoV-2 macrodomain HTRF assay: IC50
[4] = dose-response, read-out: SARS CoV-2 macrodomain HTRF assay: Ki
[5] = from SARS CoV-2 macrodomain HTRF assay
[6] = ligand modeling in Mac1 crystal structure
[7] = stereoisomer(s) modeled in Mac1 crystal structure
[8] = Single dose, concentration 200 μM, read-out: SARS CoV-2 macrodomain HTRF assay: Average % competition
[9] = preliminary screen, compound at 200 μM, mean of 3-4 technical replicates, read-out: % competition in HTRF assay
[10] = ligand modeling in Mac1 crystal soak
[11] = stereoisomer(s) of ligand modeled in Mac1 crystal structure
[12] = Single dose, concentration 200 μM, read-out: Average % competition
[13] = SARS CoV-2 macrodomain HTRF assay
[14] = SARS CoV-2 macrodomain HTRF assay, dose-response, read-out: IC50
[15] = SARS CoV-2 macrodomain HTRF assay, dose-response, read-out: Ki
[16] = Single dose, 200 μM, mean of three technical replicates, read-out: Average % competition
[17] = crystal soak 10 mM, P43 crystals
[18] = crystal soak 10 mM, DMSO background map

O[C@H]1CC[C@H]2CCN(c3ncnc4[nH]ccc34)[C@H]21 [AVI-5997]
IC50 [1, 3]: 37 µM | Ki [1, 4]: 34 µM | Ligand efficiency (binding enery per heavy atom) [1, 5]: 0.34 | Number of isomers bound [2, 6]: 1 | Isomers modeled [2, 7]: SSR

CN1CCN(c2ncnc3[nH]ccc23)C(CO)C1 (stereo not shown) [AVI-3721]
inhibition at 200 µM [1, 8]: 11% | inhibition at 200 µM [1, 9]: 11% | Number of isomers bound [2, 10]: 1 | Isomers modeled [2, 11]: R,R

OCC(Cc1cccs1)Nc1ncnc2[nH]ccc12 (stereo not shown) [AVI-3711]
inhibition at 200 µM [1, 12]: 63% | inhibition at 200 µM [1, 9]: 63% | Number of isomers bound [2, 10]: 1 | PanDDA run, TFA/DMSO background map: 1-BDC ([2]; soak concentration 10 mM): 0.16 | PanDDA run, TFA/DMSO background map: Hit ([2]; soak concentration 10 mM): TRUE

OC1(CNc2ncnc3[nH]ccc23)CCCSC1 (stereo not shown) [AVI-4322]
IC50 [1, 3]: 53 µM | Ki [1, 4]: 49 µM | Ligand efficiency (binding enery per heavy atom) [1, 5]: 0.33 | Number of isomers bound [2, 6]: 1

C[C@@H](O)[C@H](CO)Nc1ncnc2[nH]ccc12.O=C(O)C(F)(F)F [AVI-3730]
inhibition at 200 µM [1, 12]: 63% | inhibition at 200 µM [1, 9]: 63% | Number of isomers bound [2, 10]: 1 | PanDDA run, TFA/DMSO background map: 1-BDC ([2]; soak concentration 10 mM): 0.12 | PanDDA run, TFA/DMSO background map: Hit ([2]; soak concentration 10 mM): TRUE

O=C(O)C(F)(F)F.OCC1(Nc2ncnc3[nH]ccc23)CCCC1 [AVI-3692]
Ligand efficiency (binding enery per heavy atom) [1, 13]: 0.35 | IC50 [1, 14]: 49 µM | Ki [1, 15]: 46 µM | PanDDA run, TFA/DMSO background map: 1-BDC ([2]; crystal soak 10 mM): 0.11 | PanDDA run, TFA/DMSO background map: Hit ([2]; crystal soak 10 mM): TRUE | Number of isomers bound [2, 10]: 1 | Isomers modeled [2, 11]: achiral

O=C(O)C(F)(F)F.OCC1(Nc2ncnc3[nH]ccc23)CCC1 [AVI-3670]
Ligand efficiency (binding enery per heavy atom) [1, 13]: 0.38 | IC50 [1, 14]: 39 µM | Ki [1, 15]: 36 µM | PanDDA run, TFA/DMSO background map: 1-BDC ([2]; crystal soak 10 mM): 0.12 | PanDDA run, TFA/DMSO background map: Hit ([2]; crystal soak 10 mM): TRUE | Number of isomers bound [2, 10]: 1 | Isomers modeled [2, 11]: achiral,achiral

OCC(Nc1ncnc2[nH]ccc12)C1CCCC1 (stereo not shown) [AVI-3649]
inhibition at 200 µM [1, 12]: 68% | inhibition at 200 µM [1, 9]: 68% | PanDDA run, TFA/DMSO background map: 1-BDC ([2]; crystal soak 10 mM): 0.11 | PanDDA run, TFA/DMSO background map: Hit ([2]; crystal soak 10 mM): TRUE | Number of isomers bound [2, 10]: 1

CC1CCN(C(=O)c2ccc3c(c2)nc(CO)n3C)CC1C(=O)O (stereo not shown) [AVI-348]
inhibition at 200 µM [1, 16]: < 10% | inhibition at 200 µM [1, 9]: < 10% | Number of isomers bound [2, 10]: 1

Cc1c[nH]c2ncnc(NCC(C)(C)O)c12 [AVI-3758, 2-methyl-1-((5-methyl-7H-pyrrolo[2,3-d]pyrimidin-4-yl)amino)propan-2-ol]
Hill slope ([1]; HTRF dose-response fit, Mac1): 1.0 | Ligand efficiency (binding enery per heavy atom) [1, 13]: 0.40 | Hill slope ([1]; SARS CoV-2 macrodomain HTRF assay, dose-response): 1.0 | Ki [1, 15]: 26 µM | IC50 ([1]; read-out: HTRF IC50): 28 µM | Occupancy difference (refined_occupancy - 2*(1-BDC)) [2]: 22 | Refined ligand occupancy (%) [2]: 50% | 1-BDC ([2]; PanDDA background density correction): 0.14 | X-ray crystal structure ([2]; X-ray crystal structure determined (TRUE)): TRUE | Hit (PanDDA run, overall) [2, 17]: TRUE | Hit (PanDDA run, DMSO background map) [2, 18]: TRUE | 1-BDC (PanDDA run, DMSO background map) ([2]; crystal soak 10 mM, DMSO background map, event 1): 0.19 and 0.14 | Total number of conformations ([2]; ligand conformations modeled in Mac1 crystal structure): 2 | Number of isomers bound [2, 6]: 1 | 2*(1-BDC) (%) ([2]; occupancy estimate from PanDDA BDC): 28% | Binding site ([2]; site of ligand in X-ray crystal structure): Adenosine | Isomers modeled [2, 7]: achiral,achiral

OC(c1ccccc1)C1CCCN1c1ncnc2[nH]ccc12 (stereo not shown) [AVI-3652]
inhibition at 200 µM [1, 8]: 35% | inhibition at 200 µM [1, 9]: 35% | PanDDA run, TFA/DMSO background map: 1-BDC ([2]; crystal soak 10 mM): 0.16 | PanDDA run, TFA/DMSO background map: Hit ([2]; crystal soak 10 mM): TRUE | Number of isomers bound [2, 10]: 1

OCC1CCCN1c1ncnc2[nH]ccc12 (stereo not shown) [AVI-3685]
fold decrease in affinity compared to AVI-607 ([1]; HTRF): > 20 fold | inhibition at 200 µM [1, 8]: 47% | inhibition at 200 µM [1, 9]: 48% | Number of isomers bound [2, 10]: 1

Cc1cc2c(=O)n(CCN3C(=O)c4ccccc4S3(=O)=O)nnc2s1 [AVI-341]
inhibition at 200 µM [1, 16]: 11% | inhibition at 200 µM [1, 9]: 11% | Number of isomers bound [2, 10]: 1 | Isomers modeled [2, 11]: achiral

Cc1c[nH]c2ncnc(NCC3(O)CCCCC3)c12 [AVI-3761, 1-(((5-methyl-7H-pyrrolo[2,3-d]pyrimidin-4-yl)amino)methyl)cyclohexan-1-ol]
Ki [1]: 12 µM | IC50 ([1]; HTRF IC50): 13 µM | Isomers modeled [2]: achiral | Number of isomers bound [2]: 1

O=C(O)C(F)(F)F.OC[C@H]1CC2(CN1c1ncnc3[nH]ccc13)OCCO2 [AVI-3702]
inhibition at 200 µM [1, 8]: 17% | inhibition at 200 µM [1, 9]: 17% | Number of isomers bound [2, 10]: 1 | PanDDA run, TFA/DMSO background map: 1-BDC ([2]; soak concentration 10 mM): 0.13 | PanDDA run, TFA/DMSO background map: Hit ([2]; soak concentration 10 mM): TRUE

OCC(Cc1ccoc1)Nc1ncnc2[nH]ccc12 (stereo not shown) [AVI-3705]
inhibition at 200 µM [1, 12]: 64% | inhibition at 200 µM [1, 9]: 64% | Number of isomers bound [2, 10]: 1 | PanDDA run, TFA/DMSO background map: 1-BDC ([2]; soak concentration 10 mM): 0.14 | PanDDA run, TFA/DMSO background map: Hit ([2]; soak concentration 10 mM): TRUE

OC[C@H]1CN2CCC[C@H]2CN1c1ncnc2[nH]ccc12 [AVI-3724]
inhibition at 200 µM [1, 8]: < 10% | inhibition at 200 µM [1, 9]: < 10% | Pandda run, overall: Hit [2, 17]: TRUE | Pandda run, overall: Modeling comment [2, 17]: Weak density, not modeled | PanDDA run, DMSO background map: 1-BDC [2, 18]: 0.05 | PanDDA run, DMSO background map: Hit [2, 18]: TRUE

CC1CCN(c2ncnc3[nH]ccc23)C1CO (stereo not shown) [AVI-3655]
inhibition at 200 µM [1, 8]: 75% | inhibition at 200 µM [1, 9]: 75% | PanDDA run, TFA/DMSO background map: 1-BDC ([2]; crystal soak 10 mM): 0.18 | PanDDA run, TFA/DMSO background map: Hit ([2]; crystal soak 10 mM): TRUE | Number of isomers bound [2, 10]: 1
